This is an account of results in publication PMC8875392, “Design and Characterization of Myristoylated and Non-Myristoylated Peptides Effective against Candida spp. Clinical Isolates” (International Journal of Molecular Sciences, 2022).

Data set [1] concerns C. parapsilosis clinical isolates. It is filed as cell-based, Candida parapsilosis. On the procedure:
(§1) The antifungal activity of AMPs was determined against 50 clinical isolates, 10 for each of the following Candida species: C. albicans, C. tropicalis, C. glabrata, C. parapsilosis, and C. auris. The latter were derived from patients with positive blood cultures in four hospitals in India, with known resistance profiles to fluconazole, voriconazole, and echinocandins. Yeast cells were grown in Brain Heart Infusion (BHI) medium (Sigma-Aldrich, Gillingham, UK) for 16 h at 37 °C in a 150-rpm orbital shaker. Cells were then sub-inoculated in a fresh BHI medium and grown to an optical density (OD) of 0.3. The turbidity of the inoculum was adjusted to 0.5 McFarland and diluted 1:500 in RPMI 1640 broth, corresponding to around […].
(§2) Minimal inhibitory concentrations (MICs) were determined by Broth microdilution susceptibility tests, according to The Clinical and Laboratory Standards Institute (CLSI) international guidelines. A fungal suspension of 0.5 MacFarland was diluted 1:500 in RPMI 1640 broth and incubated in 96 multi-well plates containing AMPs at different concentrations ranging from 0.125 to 256 μg/mL. In this range of concentration, lipopeptides were completely soluble. […] The MIC90 represents the value at which ≥90% of the strains within a test population were inhibited.

In data set [2] the test system is C. tropicalis clinical isolates. It is filed as cell-based, Candida tropicalis. Particulars: for MIC90: clinical isolates, 16 h; for MIC: CLSI broth microdilution, RPMI 1640. On the procedure: as §1, §2
In data set [3] the test system is Galleria mellonella larvae. Briefly: In vivo peptide toxicity in Galleria mellonella model. Particulars: uninfected larvae, groups of ten, peptide 640 µg/mL, single injection, 30 °C. On the procedure:
(§3) Multidrug-resistant C. auris was chosen as a representative species for in vivo studies. […] Groups of ten G. mellonella larvae were infected with C. auris and treated with the Pep-B and Myr-B peptides at a concentration of 640 µg/mL (about 400 µM).
(§4) Ten larvae (250–320 mg each) were selected at random for each step in the procedure. Any larvae with darkening of the cuticle were discarded. The test compounds and yeast were injected into the hemocoel in water buffer through the last left proleg (Insumed 30G Pic, Italy, syringe volume 0.5 mL, needle size 30G). The larvae were incubated in the dark for 3 days, and mortality was recorded daily.
(§5) For the peptide efficacy experiment, ten larvae were injected into the last left proleg with a pre-determined infective dose of yeast and the dose of peptides at the same time in a final volume of 10 μL and incubated at 30 °C. Each step in the procedure included six groups of 10 larvae: C. auris-infected larvae (10^7 CFU), infected and treated larvae with peptide B (640 μg/mL), infected and treated larvae with peptide Myr-B (640 μg/mL), treated larvae with peptide B (640 μg/mL), treated larvae with peptide Myr-B (640 μg/mL), and vehicle-injected control (water). The mortality was recorded daily for 3 days.

The subject of a further data set is Candida auris. Briefly: In vivo peptide efficacy in Galleria mellonella larvae infected with C. auris. Particulars: larvae infected with Candida auris 10^7 CFU, groups of ten, peptide 640 µg/mL injected at the same time, 30 °C. On the procedure:
as §3, §4
An infective dose of yeast Candida auris was determined by injecting groups of ten larvae with a suspension at 10^5, 10^6, 10^7, and 10^8 colony-forming units (CFU) per injection. The larvae were incubated for 3 days at 30 °C. An infective dose was defined as the one that caused an immune response, recognizable by the darkening of the cuticle and able to kill approximately 50% of larvae after 24 h.
as §5

Where [4] appears, read: isolate Candida parapsilosis 8, CLSI broth microdilution, RPMI 1640.
Where [5] appears, read: isolate Candida parapsilosis 9, CLSI broth microdilution, RPMI 1640.
[6] abbreviates: isolate Candida parapsilosis 10, CLSI broth microdilution, RPMI 1640.

Molecules are shown by their SMILES. Converted amounts (≈) assume the structure as drawn. Read-outs that look alike come from different tables or passages of the source. Where a SMILES comes first, the peptide text is derived from it. The star is where a group is joined. Myristoyl = CCCCCCCCCCCCCC(=O)*

Method for rabbit erythrocytes: The hemolytic assay was performed on rabbit erythrocytes (Rockland) maintained in Alsever’s solution (Innovative Research). Briefly, after the removal of Alsever’s solution, the erythrocytes were resuspended in PBS and counted in a hemocytometer. A suspension of 5,000,000 red blood cells was incubated with four dilutions (from 5 µm to 50 µm) of the six peptides in a 96-well microplate. As a negative control, erythrocytes were incubated without the peptides, while as a positive control, erythrocyte was added with triton 10% v/v. The plate was incubated at 37 °C for 2 h and subsequently centrifuged at 1200 rpm × 3 min to separate the pellet from the supernatant. The absorbance of the supernatant was measured at 492 nm. Each point was made in triplicate. The relative OD compared to the positive control defined the percentage of hemolysis [71]. Statistical analysis was performed using two-way ANOVA analysis followed by Bonferroni’s post-test.

For `CCCCCCCCCCCCCC(=O)N[C@@H](Cc1c[nH]c2ccccc12)C(=O)N[C@H](C(=O)N[C@H](C(=O)N[C@@H](CCCCN)C(=O)N[C@@H](CCCCN)C(=O)N[C@H](C(=O)N[C@@H](CCCCN)C(=O)NCC(=O)N[C@@H](CC(C)C)C(=O)N[C@@H](CC(C)C)C(=O)N[C@@H](CCCCN)C(=O)O)C(C)C)C(C)C)C(C)C` [Myr-C] (Myristoyl-WVVKKVKGLLK-OH; C-terminus assumed), the MIC in data set [1] (clinical isolates, 16 h) turned out to be 32 µg/mL (≈ 21.2 µM); in data set [1] (setting [4]), 32 µg/mL (≈ 21.2 µM); in data set [1] (setting [5]) it was 32 µg/mL (≈ 21.2 µM); in data set [1] (setting [6]) it was 32 µg/mL (≈ 21.2 µM); in data set [2] (isolate Candida tropicalis 1), 16 µg/mL (≈ 10.6 µM); in data set [2] (isolate Candida tropicalis 2), 16 µg/mL (≈ 10.6 µM). The MIC in data set [2] (isolate Candida tropicalis 3), in data set [2] (isolate Candida tropicalis 4), in data set [2] (isolate Candida tropicalis 5), in data set [2] (isolate Candida tropicalis 6), in data set [2] (isolate Candida tropicalis 7) and in data set [2] (isolate Candida tropicalis 8) was 16 µg/mL (≈ 10.6 µM) in each case. The MIC in data set [2] (isolate Candida tropicalis 9) and in data set [2] (isolate Candida tropicalis 10) was 16 µg/mL (≈ 10.6 µM) each time. The MIC90 in data set [1] (clinical isolates, 16 h) worked out at 32 µg/mL (≈ 21.2 µM); in data set [2] it was 16 µg/mL (≈ 10.6 µM). The same molecule showed a hemolysis in the data set on rabbit erythrocytes (50 µM) of 28.5%.
Take `CCCCCCCCCCCCCC(=O)N[C@@H](Cc1c[nH]c2ccccc12)C(=O)N[C@@H](CCCNC(=N)N)C(=O)NCC(=O)N[C@H](C(=O)N[C@H](C(=O)N[C@@H](CCCCN)C(=O)N[C@H](C(=O)N[C@H](C(=O)N[C@@H](CCCCN)C(=O)N[C@@H](CCCCN)C(=O)N[C@H](C(=O)O)C(C)C)C(C)C)C(C)C)[C@@H](C)O)[C@@H](C)CC` [Myr-B] (Myristoyl-WRGITKVVKKV-OH; C-terminus assumed): the MIC turned out to be 32 µg/mL (≈ 21 µM) in data set [1] (clinical isolates, 16 h); 32 µg/mL (≈ 21 µM) in data set [1] (setting [4]); 32 µg/mL (≈ 21 µM) in data set [1] (setting [5]); 32 µg/mL (≈ 21 µM) in data set [1] (setting [6]); 8 µg/mL (≈ 5.25 µM) in data set [2] (isolate Candida tropicalis 1); 8 µg/mL (≈ 5.25 µM) in data set [2] (isolate Candida tropicalis 2). For the same molecule, the MIC in data set [2] (isolate Candida tropicalis 3), in data set [2] (isolate Candida tropicalis 4), in data set [2] (isolate Candida tropicalis 5), in data set [2] (isolate Candida tropicalis 6), in data set [2] (isolate Candida tropicalis 7) and in data set [2] (isolate Candida tropicalis 8) was 8 µg/mL (≈ 5.25 µM) throughout. Further, the MIC in data set [2] (isolate Candida tropicalis 9) and in data set [2] (isolate Candida tropicalis 10) was 8 µg/mL (≈ 5.25 µM) throughout. Further, the MIC90 came out at 32 µg/mL (≈ 21 µM) in data set [1] (clinical isolates, 16 h) and 8 µg/mL (≈ 5.25 µM) in data set [2]. The “Peptide toxicity, DAY 1 Dead” value in data set [3] was 1. Moreover, the “Peptide toxicity, DAY 2 Dead” value in data set [3] came to 1. In addition, the “Peptide toxicity, DAY 3 Dead” value in data set [3] amounted to 1. For the same molecule, in the data set with Candida auris, the “Peptide efficacy, DAY 1 Alive” value is on record as 8. Further, the “Peptide efficacy, DAY 1 Dead” value with Candida auris is on record as 2. Besides, the “Peptide efficacy, DAY 2 Alive” value with Candida auris is 3. In addition, the “Peptide efficacy, DAY 2 Dead” value in the data set on Candida auris turned out to be 7. Besides, the “Peptide efficacy, DAY 3 Alive” value in the data set with Candida auris is recorded as 3. Moreover, the “Peptide efficacy, DAY 3 Dead” value with Candida auris was 7.
As to `CCCCCCCCCCCCCC(=O)N[C@@H](Cc1c[nH]c2ccccc12)C(=O)N[C@@H](Cc1ccccc1)C(=O)NCC(=O)N[C@@H](CCCCN)C(=O)N[C@@H](CC(C)C)C(=O)N[C@@H](Cc1ccc(O)cc1)C(=O)N[C@@H](CCCNC(=N)N)C(=O)NCC(=O)N[C@H](C(=O)N[C@H](C(=O)N[C@@H](CCCCN)C(=O)O)[C@@H](C)O)[C@@H](C)CC` [Myr-A] (Myristoyl-WFGKLYRGITK-OH; C-terminus assumed), the MIC in data set [1] (clinical isolates, 16 h) stood at 16 µg/mL (≈ 10.1 µM); in data set [1] (setting [4]), 16 µg/mL (≈ 10.1 µM); in data set [1] (setting [5]), 16 µg/mL (≈ 10.1 µM); in data set [1] (setting [6]), 16 µg/mL (≈ 10.1 µM); in data set [2] (isolate Candida tropicalis 1), 16 µg/mL (≈ 10.1 µM); in data set [2] (isolate Candida tropicalis 2), 16 µg/mL (≈ 10.1 µM). In addition, the MIC in data set [2] (isolate Candida tropicalis 3), in data set [2] (isolate Candida tropicalis 4), in data set [2] (isolate Candida tropicalis 5), in data set [2] (isolate Candida tropicalis 6), in data set [2] (isolate Candida tropicalis 7) and in data set [2] (isolate Candida tropicalis 8) was 16 µg/mL (≈ 10.1 µM) each time. Also, the MIC in data set [2] (isolate Candida tropicalis 9) and in data set [2] (isolate Candida tropicalis 10) was 16 µg/mL (≈ 10.1 µM) throughout. Besides, the MIC90 is 16 µg/mL (≈ 10.1 µM) in data set [1] (clinical isolates, 16 h) and 16 µg/mL (≈ 10.1 µM) in data set [2]. The molecule further showed a hemolysis in the data set with rabbit erythrocytes (5 µM) of 0.1%.
